Source: patent publication US20070237756A1, “Antimicrobial preparations” (PURAC BIOCHEM B.V., priority 2006, published 2007)

What was measured:
[1] = system: Salmonella typhimurium ATCC 13311; assay: Growth in inoculated milk at 12° C., plate count; format: cell-based; conditions: non-fat milk; for CFU/ml, day 0: 0 days; for CFU/ml, day 2: 2 days; for CFU/ml, day 4: 4 days; for CFU/ml, day 6: 6 days
Procedure: Stock cultures of Salmonella typhimurium ATCC 13311 and Escherichia coli O157:H7 ATCC 700728 which were used to inoculate liquid cultures were routinely kept on agar plates containing brain heart infusion (Oxoid CM225, Basingstoke, United Kingdom) fortified with 1.5% agar. […] Just prior to the inoculation of the foods the cultures were diluted with a solution containing 0.1% peptone and 0.85% NaCl.
Sterile non-fat milk was obtained from a local supermarket. Appropriate quantities of amino acids were added.
Milk was cooled to 10° C. and subsequently inoculated with an appropriately diluted culture of Salmonella typhimurium. Inoculated milk samples were incubated at 12° C.
The microbial analysis of the food samples was done as follows: A sealing bag was opened and to this were added 2 times the net weight of sterile dilution fluid ([…] and 0.1% (w/v) bacteriological peptone). Samples were homogenized for 1 min in a Stomacher 400 lab blender (Seward Medical, London, England) and 50 μl of the homogenate were plated on a suitable agar medium using an Eddyjet type 1.23 spiral plater (IUL Instruments, Barcelona, Spain). Escherichia coli 0157:H7 and Salmonella typhimurium were plated on VRBG agar (Oxoid, CM0485, Basingstoke, United Kingdom). Plates were incubated for 24 hours at 30° C. and then counted.
The effect of single additions of glycine, DL-alanine and a mixture of glycine (0.67%) and DL-alanine (0.8%) on the growth of Salmonella typhimurium in milk at 12° C. is given in Table I: […]

[2] = system: Salmonella enterica (ATCC 13311); conditions: broth cultures, to a concentration of 100 mM, single amino acid

Structure (SMILES) | CFU/ml, day 0 [1] | CFU/ml, day 2 [1] | CFU/ml, day 4 [1] | CFU/ml, day 6 [1] | effect on the growth rate of Salmonella typhimurium [2]
CC(N)C(=O)O (racemic) [DL-alanine] | 5 · 10^3 CFU/ml | 5 · 10^4 CFU/ml | 4 · 10^5 CFU/ml | 1 · 10^5 CFU/ml | little or no effect
NCC(=O)O [glycine] | 5 · 10^3 CFU/ml | 5 · 10^4 CFU/ml | 1 · 10^5 CFU/ml | 8 · 10^4 CFU/ml | little or no effect
